“And” between values parts separate entries of the source, which are not always exact repeats. Identical values can stand only once. ± gives the expanded uncertainty stated by the source.
Test: molar heat capacity at constant volume
Details: Fluid (supercritical or subcritical phases), Vacuum adiabatic calorimetry

FC(F)C(F)(F)F [pentafluoroethane]
Details | molar heat capacity at constant volume
350 K, Mass density=585.7 kg/m3 | 121.87 ± 2.4 J/K/mol and 115.26 ± 2.3 J/K/mol
350 K, Mass density=688.6 kg/m3 | 121.82 ± 2.4 J/K/mol
350 K, Mass density=774 kg/m3 | 115.87 ± 2.3 J/K/mol
350 K, Mass density=882.7 kg/m3 | 111.2 ± 2.2 J/K/mol
350 K, Mass density=975 kg/m3 | 106.81 ± 2.1 J/K/mol and 108.22 ± 2.2 J/K/mol
350 K, Mass density=1076.5 kg/m3 | 105.51 ± 2.1 J/K/mol and 105.75 ± 2.1 J/K/mol
351 K, Mass density=403.4 kg/m3 | 114.03 ± 2.3 J/K/mol
351 K, Mass density=503 kg/m3 | 115.42 ± 2.3 J/K/mol
351 K, Mass density=585.7 kg/m3 | 123.23 ± 2.5 J/K/mol and 114 ± 2.3 J/K/mol
351 K, Mass density=688.6 kg/m3 | 119.91 ± 2.4 J/K/mol
351 K, Mass density=773.9 kg/m3 | 114.06 ± 2.3 J/K/mol
351 K, Mass density=882.7 kg/m3 | 110.25 ± 2.2 J/K/mol
351 K, Mass density=974.9 kg/m3 | 106.01 ± 2.1 J/K/mol and 107.36 ± 2.2 J/K/mol
351 K, Mass density=1076.4 kg/m3 | 105.26 ± 2.1 J/K/mol and 105.57 ± 2.1 J/K/mol
352 K, Mass density=403.5 kg/m3 | 110.23 ± 2.2 J/K/mol
352 K, Mass density=503 kg/m3 | 114.08 ± 2.3 J/K/mol
352 K, Mass density=585.7 kg/m3 | 123.57 ± 2.5 J/K/mol and 113.02 ± 2.3 J/K/mol
352 K, Mass density=688.6 kg/m3 | 117.02 ± 2.4 J/K/mol
352 K, Mass density=773.9 kg/m3 | 113.16 ± 2.3 J/K/mol
352 K, Mass density=882.6 kg/m3 | 108.96 ± 2.2 J/K/mol
352 K, Mass density=974.8 kg/m3 | 106.96 ± 2.1 J/K/mol and 107.86 ± 2.2 J/K/mol
352 K, Mass density=1076.3 kg/m3 | 105.75 ± 2.1 J/K/mol and 105.23 ± 2.1 J/K/mol
353 K, Mass density=403.5 kg/m3 | 109.29 ± 2.2 J/K/mol
353 K, Mass density=503 kg/m3 | 114.32 ± 2.3 J/K/mol
353 K, Mass density=585.7 kg/m3 | 120.99 ± 2.4 J/K/mol and 113.07 ± 2.3 J/K/mol
353 K, Mass density=688.5 kg/m3 | 116.8 ± 2.4 J/K/mol
353 K, Mass density=773.8 kg/m3 | 113.56 ± 2.3 J/K/mol
353 K, Mass density=882.5 kg/m3 | 110.9 ± 2.2 J/K/mol
353 K, Mass density=974.7 kg/m3 | 107.31 ± 2.2 J/K/mol and 108.33 ± 2.2 J/K/mol
353 K, Mass density=1076.2 kg/m3 | 106.21 ± 2.1 J/K/mol and 105.67 ± 2.1 J/K/mol
354 K, Mass density=403.6 kg/m3 | 113.22 ± 2.3 J/K/mol
354 K, Mass density=503 kg/m3 | 115.36 ± 2.3 J/K/mol
354 K, Mass density=585.7 kg/m3 | 119.21 ± 2.4 J/K/mol and 111.24 ± 2.2 J/K/mol
354 K, Mass density=688.5 kg/m3 | 117.18 ± 2.4 J/K/mol
354 K, Mass density=773.8 kg/m3 | 113.7 ± 2.3 J/K/mol
354 K, Mass density=882.5 kg/m3 | 112.32 ± 2.3 J/K/mol
354 K, Mass density=974.6 kg/m3 | 107.07 ± 2.1 J/K/mol and 107.84 ± 2.2 J/K/mol
354 K, Mass density=1076.1 kg/m3 | 105.5 ± 2.1 J/K/mol and 106.64 ± 2.1 J/K/mol
355 K, Mass density=403.6 kg/m3 | 113.06 ± 2.3 J/K/mol
355 K, Mass density=503 kg/m3 | 114.26 ± 2.3 J/K/mol
355 K, Mass density=585.7 kg/m3 | 121.17 ± 2.4 J/K/mol and 110.25 ± 2.2 J/K/mol
355 K, Mass density=688.5 kg/m3 | 116.52 ± 2.3 J/K/mol
355 K, Mass density=773.7 kg/m3 | 113.14 ± 2.3 J/K/mol
355 K, Mass density=882.4 kg/m3 | 110.04 ± 2.2 J/K/mol
355 K, Mass density=974.6 kg/m3 | 106.63 ± 2.1 J/K/mol and 107.29 ± 2.2 J/K/mol
355 K, Mass density=1076 kg/m3 | 104.47 ± 2.1 J/K/mol and 105.31 ± 2.1 J/K/mol
356 K, Mass density=403.6 kg/m3 | 111.13 ± 2.2 J/K/mol
356 K, Mass density=503 kg/m3 | 114 ± 2.3 J/K/mol
356 K, Mass density=585.7 kg/m3 | 121.39 ± 2.4 J/K/mol and 110.52 ± 2.2 J/K/mol
356 K, Mass density=688.4 kg/m3 | 115.44 ± 2.3 J/K/mol
356 K, Mass density=773.7 kg/m3 | 112.56 ± 2.3 J/K/mol
356 K, Mass density=882.4 kg/m3 | 109.83 ± 2.2 J/K/mol
356 K, Mass density=974.5 kg/m3 | 106.76 ± 2.1 J/K/mol and 106.98 ± 2.1 J/K/mol
356 K, Mass density=1075.9 kg/m3 | 105.59 ± 2.1 J/K/mol and 105.04 ± 2.1 J/K/mol
357 K, Mass density=403.6 kg/m3 | 111.14 ± 2.2 J/K/mol
357 K, Mass density=503 kg/m3 | 114.3 ± 2.3 J/K/mol
357 K, Mass density=585.6 kg/m3 | 111.96 ± 2.2 J/K/mol
357 K, Mass density=585.7 kg/m3 | 119.54 ± 2.4 J/K/mol
357 K, Mass density=688.4 kg/m3 | 115.72 ± 2.3 J/K/mol
357 K, Mass density=773.7 kg/m3 | 114.08 ± 2.3 J/K/mol
357 K, Mass density=882.3 kg/m3 | 111.13 ± 2.2 J/K/mol

Source: the NIST ThermoML archive (doi:10.1021/je0501843)
